The test system of series [1] is domestic shorthair (DSH) breed cats. Nature of the series: 28-day feeding study in cats: systemic health, body weight, blood counts, serum biochemistry. It is filed as in vivo. Particulars: treatment diet 2.3 g STAY-C 50/kg cat food, 28 days. As for the experimental part:
(§1) 18 domestic shorthair (DSH) breed cats (mean age 3.83±1.85 years, mean body weight 4.2+1.1 kg) were divided by age and gender into two equal groups (n=9) to be fed for 28 days with a • control diet or • treatment diet (2.3 g STAY-C® 50/kg cat food) As the “clean tooth” model was used, all cats received a dental cleaning consisting of ultrasonic scaling and, where necessary, using an abrasor after […], before the beginning of the study. The animals were then treated with the diets for 28 days. The analysis of the different indices were carried out according known methods.

Series [2] has the same test system. The experiment in a line: clean tooth model, 28-day feeding study in cats: gingivitis, plaque and calculus indices. It is filed as in vivo. To be noted: treatment diet 2.3 g STAY-C 50/kg cat food, 28 days. As for the experimental part:
as §1

For `O=C1O[C@H]([C@@H](O)CO)C(O)=C1OP(=O)(O)O.[Na+].[Na+].[Na+]` [STAY-C®50, trisodium L-ascorbic acid-2-monophosphate], the “changes in systemic health, body weight, blood counts or serum biochemistry” value in series [1] is listed as “No changes”. Further, in series [2], the “Calculus indices, reduction compared to control group” value is listed as “about 14%” and the Plaque indices entry is “reduced significantly”. In addition, in series [2] (control group 28% increase), the Gingivitis indices entry is reported as “not increased”.
